Data published in US20150183721A1, “AMINO-ALCOHOL ANALOGUES AND USES THEREOF” (YISSUM RESEARCH DEVELOPMENT COMPANY OF THE HEBREW …, priority 2009, published 2015).
“Also recorded” adds a separate entry of the source. Where two headings read alike, the source gives them in different places.

Assays:
[1] = Solubility of compounds in DMSO, ethanol and Solutol-HS15 (20 mM stock solutions); type: physicochemical
Description: General Procedure for the Solutol Emulsions Preparation
The amino-alcohol compound of the invention (4 μmol) was mixed with Solutol HS15 (6.0 mg) and heated to 70-80° C. Hot water (1 ml) was added to the mixture and stirred thoroughly. Thickening occurs initially due to hydration and reaches a maximum when half of the water has been added. The viscosity decreases as more water is added.
The solubility of compounds of the invention in ethanol and DMSO was tested in order to study their cytotoxicity.

[2] = tested on: A2780 (ovarian carcinoma cell line); test: Cytotoxicity test, IC50 determination by MTT test; type: cell-based; conditions: 24 hr incubation, 20000 cells/well, 10% serum, read-out: IC50 ± SD (MTT-Test), A2780
Description: (§1) Cytotoxicity Tests (IC50 Determination by MTT test)
(§2) The cytotoxicity of the compounds of the invention A1-A12 was tested in comparison to cis-Pt in four cancer cell-lines:
A2780 (ovarian carcinoma cell line), […]
(§3) HT-29 (Human colon adenocarcinoma grade II) by MTT test after an incubation of 24 hours.
(§4) Culture Medium Preparation for Attached Cell-lines: A2780, A2780cisR, CRL-5803, HT-29. • Medium RPMI-1640: 86% • Serum (FCS-fatal calf serum/FBS-fatal bovine serum): 10% • L-Glutamine: 1% • Antibiotics-penicillin-streptomycin(P/S): 1% • Na pyruvate: 1% • HEPES: 1%

[3] = tested on: A2780cisR (ovarian carcinoma-cisPt resistance cell line); test: Cytotoxicity test, IC50 determination by MTT test; type: cell-based; conditions: 24 hr incubation, 20000 cells/well, 10% serum, read-out: IC50 ± SD (MTT-Test), A2780cisR
Description: as §1
(§5) The cytotoxicity of the compounds of the invention A1-A12 was tested in comparison to cis-Pt in four cancer cell-lines: […]
A2780cisR (ovarian carcinoma-cisPt resistance cell line), […]
as §3, §4

[4] = tested on: HT-29 (Human colon adenocarcinoma grade II); test: Cytotoxicity test, IC50 determination by MTT test; type: cell-based; conditions: 24 hr incubation, 20000 cells/well, 10% serum, read-out: IC50 ± SD (MTT-Test), HT-29
Description: as §1, §5, §3, §4

[5] = tested on: CRL-5803 (non-small cell lung carcinoma cell line); test: Cytotoxicity test, IC50 determination by MTT test; type: cell-based; conditions: 24 hr incubation, 20000 cells/well, 10% serum, read-out: IC50 ± SD (MTT-Test), CRL5803
Description: as §1, §5
(§6) CRL-5803 (non-small cell lung carcinoma cell line), and
as §3, §4

[6] = tested on: A2780, A2780cisR, CRL-5803, HT-29; test: Cytotoxicity (MTT), overall statements on the four cancer cell-lines; type: cell-based; conditions: 24 hr, compared to cis-Pt
Description: as §1, §2
A2780 (ovarian carcinoma cell line),
A2780cisR (ovarian carcinoma-cisPt resistance cell line),
as §6, §3, §4

[7] = tested on: SPM formation in A2780 cells; test: Enzymatic assay in cells: formation of fluorescent SPM from Bodipy-12-CER (SMS inhibition), HPLC; type: cell-based; conditions: 72 hr incubation in total, related to the control
Description: (§7) Enzymatic Assay in Cells (SMS, GCS and CDase Enzyme inhibition Studies) • Plate 10,000 cells in 0.5 ml culture media per well in a 48 well plate. • Incubate (37° C., 5% CO2) overnight to allow the cells to attach to the wells. • Add 10 μl of the fluorescent reagent BodiPy-12-Cer 0.5 μM/well. • After 48 hr incubation with the BodiPy-12-Cer, add 10 μl of the drug of interest dissolved in DMSO/Ethanol/solutol to each well. • Incubate (37° C., 5% CO2) for another 24 hr. • Remove the media. • Wash each well with 200 μl PBS. • Add 2000 trypsin allow sitting for 5 minutes in incubator. • Neutralize Trypsin with culture medium (complete to 1 ml) • Add suspension to 1.5 ml ephendorf. • Centrifuge for 5 minutes at 1200 rpm then remove the media. • Extract the cells with 1 ml of 1:2 CH2Cl2:MeOH by strong vortex stirring followed by centrifuge for 5 minutes at 13400 rpm. Then add the extraction into 2 ml ephendorf. • Extract the cells again with the same procedure with 1 ml of 1:1 CH2Cl2:MeOH. • Remove the solvent. • Add 2000 ethanol into the 2 ml ephendorf, do strong vortex stirring followed by centrifuge for 5 minutes at 13400 rpm. • Take 150 μl of the above sample and inject to the HPLC to quantify the relative metabolite relatively to control samples. • HPLC method conditions are:
(§8) Conditions: RP-8 Column, EX. λ 505 nm, EM. λ 530 nm
(§9) A fluorescent procedure was utilized in order to study the enzymatic inhibition of glucosylceramide synthase (GCS), ceramidases (CDase) and sphingomyelin synthase (SMS) enzymes, which can shed some light on a possible mechanism for ceramide accumulation and apoptosis. The fluorescent procedure was based on a 48-hr incubation of cancer cells with the fluorescent substrate, Bodipy (4,4-difluoro-4-bora-3a,4a-diaza-s-indacene), conjugated ceramide (Bodipy-12-CER) followed by another 24-hr period of incubation in the presence of nontoxic concentrations of compounds of the invention (72 hr incubation in total). After a predetermine incubation period, cells were washed, their lipids were extracted and the various lipids containing fluorescent fatty acid-ceramide, SPM and GC were quantified by HPLC.

[8] = tested on: SPM formation in A2780cisR cells; test: as above; type: cell-based; conditions: 72 hr incubation in total, related to the control
Description: as §7, §8, §9

[9] = tested on: SPM formation in CRL5803 cells; test: as above; type: cell-based; conditions: nontoxic concentrations (A2: 4, 6, 8, 12 μM/well; A10: 0.5, 1, 2, 4 μM/well), 72 hr
Description: as §7, §8, §9

[10] = tested on: SPM formation in HT-29 cells; test: as above; type: cell-based, Human; conditions: nontoxic concentrations (A2: 4, 6, 8, 12 μM/well; A10: 0.5, 1, 2, 4 μM/well), 72 hr
Description: as §7
Conditions: RP-8 Column, EX. λ 505 nm, EM. λ 530 nm […]

[11] = tested on: Caspase-3; test: Apoptosis determination by Caspase-3 assay (EnzCheck Caspase-3 Assay Kit #2); type: cell-based; conditions: 8 hr incubation
Description: Apoptosis Determination by Caspase-3 Assay
The assay was done according to the protocol of EnzCheck Caspase-3 Assay Kit #2 (Invitrogen) [Ref: 4].
Caspase-3 was checked using invitrogene protocol. 8 hr incubation was done.

[12] = organic solvent or mixture, DMSO, 20 mM stock solutions, read-out: Solubility, DMSO
[13] = organic solvent or mixture, ethanol, 20 mM stock solutions, read-out: Solubility, Ethanol
[14] = Homo sapiens, A2780, ethanol solutions
[15] = Homo sapiens, A2780cisR, ethanol solutions
[16] = Homo sapiens, HT-29, ethanol solutions
[17] = Solutol-HS15 lipidic emulsion, aqueous with cosolvent or surfactant or cyclodextrin, read-out: Solubility, Solutol-HS15
[18] = Homo sapiens, A2780, solutol solutions
[19] = Homo sapiens, A2780cisR, solutol solutions
[20] = Homo sapiens, HT-29, solutol solutions

solubility [1, 12] [mM]	solubility [1, 13] [mM]	solubility [1, 17] [mM]	SMILES	IC50 ([5]; ethanol solutions) [µM]	IC50 [2, 18] [µM]	IC50 [3, 19] [µM]	IC50 [4, 20] [µM]	IC50 ([5]; solutol solutions) [µM]	Solubility, Ethanol ([1]; ethanol, 20 mM stock solutions)	IC50 ([2]; ethanol solutions) [µM]	IC50 ([3]; ethanol solutions) [µM]	IC50 ([4]; ethanol solutions) [µM]	further results
> 20	> 20	–	CCCCCCCCCC(O)CNCCCCCC (stereo not drawn) [Compound A8, 1-Hexyl-amino-undecan-2-ol]	33 ± 6	–	–	–	–	–	–	–	–	IC50 [2, 14]: 16 ± 1 µM; IC50 [3, 15]: 22 ± 3 µM; IC50 [4, 16]: 33 ± 4 µM
< 20	< 20	> 4	CCCCCCCCCCCCCCCCC(O)CNCCCCCCCCCCCC (stereo not drawn) [Compound A5, 1-Dodecyl-amino-octadecan-2-ol]	–	> 100	> 100	> 100	> 100	–	–	–	–	–
> 20	> 20	> 4	CCCCCCCCCCCCCCCCC(O)CN(CC)CC (stereo not drawn) [Compound A1, 1-DEA-amino-octadecan-2-ol]	–	17 ± 4	21 ± 1	24 ± 4	40 ± 3	–	–	–	–	solubility in ethanol and DMSO ([1]; 20 mM stock solutions): good solubility in both solvents
< 20	< 20	> 4	CCCCCCCCCCCCCCCCC(O)CNCCCCCC (stereo not drawn) [Compound A3, 1-Hexyl-amino-octadecan-2-ol]	–	11 ± 1	9 ± 1	19 ± 5	18 ± 2	–	–	–	–	–
–	–	–	CCCCCCCCCCCCNCC(O)CCCCCCCCC (stereo not drawn) [Compound A10, 1-Dodecyl-amino-undecan-2-ol]	10 ± 2	–	–	–	–	✓*	4 ± 1	4 ± 1	8 ± 2	anticancer activity (in words) [6]: most active; also recorded: highest activity; effect on SPM formation ([7]; 0.5 μM): about 22%; effect on SPM formation ([8]; 0.5 μM): ~8%; SPM formation related to the control (in words) [9]: reduction in SPM formation; SPM formation related to the control (in words) [10]: reduction in SPM formation; Caspase-3 increase ([11]; 10 μM): 7 fold
–	–	–	CCCCCCCCCCCCCCNCC(O)CCCCCCCCC (stereo not drawn) [Compound A11, 1-tetradecyl-amino-undecan-2-ol]	33 ± 6	–	–	–	–	✓*	9 ± 2	9 ± 3	30 ± 7	–
< 20	< 20	> 4	CCCCCCCCCCCCCCCCC(O)CNCCCCCCCC (stereo not drawn) [Compound A4, 1-Octyl-amino-octadecan-2-ol]	–	14 ± 3	12 ± 2	15 ± 6	29 ± 4	–	–	–	–	–
< 20	–	–	CCCCCCCCCC(O)CNCCCCCCCC (stereo not drawn) [Compound A9, 1-Octyl-amino-undecan-2-ol]	14 ± 1	–	–	–	–	✓*	–	–	–	IC50 [2, 14]: 7 ± 1 µM; IC50 [3, 15]: 10 ± 1 µM; IC50 [4, 16]: 11 ± 2 µM
–	< 20	> 4	CCCCCCCCCCCCCCCCC(O)CNCCCC (stereo not drawn) [Compound A2, 1-Butyl-amino-octadecan-2-ol]	–	11 ± 3	12 ± 3	16 ± 2	32 ± 4	–	–	–	–	solubility in ethanol and DMSO ([1]; 20 mM stock solutions): only soluble in DMSO; Solubility, DMSO ([1]; DMSO, 20 mM stock solutions): ✓*; inhibition at 6 µM ([7]; Homo sapiens, 6 μM): ~10%; inhibition of SPM formation ([8]; 6 μM): no significant effect; Caspase-3 increase ([11]; 20 μM): 3 fold
–	–	–	CCCCCCCCCCCCCCCCNCC(O)CCCCCCCCC (stereo not drawn) [Compound A12, 1-hexadecyl-amino-undecan-2-ol]	> 100	–	–	–	–	✓*	> 100	> 100	> 100	–
–	–	–	N.N.[Cl][Pt][Cl] [cis-Pt, reference compound]	> 100	–	–	–	> 100	–	30 ± 1	> 100	> 100	IC50 ([2]; solutol solutions): 30 ± 1 µM; IC50 ([3]; solutol solutions): > 100 µM; IC50 ([4]; solutol solutions): > 100 µM
